# According to patent US20140262858A1, “PACKAGING FOR ALITRETINOIN” (RANBAXY LABORATORIES LIMITED, priority 2011, published 2014):
# Where “and” joins values, the source holds several entries; their conditions need not be identical. Identical values can stand only once.
# Tests used:
# [1] = Stability study of alitretinoin at 40±2° C./75±5% RH in vacuum-sealed pack in the presence of oxygen absorber (Stabilox) and silica gel desiccant; type: physicochemical; set-up: 4-Hydroxy alitretinoin impurity / 5,6-Epoxy alitretinoin impurity / Total related substances / 4-Oxo-alitretinoin impurity: unit not given here; details: for 4-Oxo-alitretinoin impurity / 5,6-Epoxy alitretinoin impurity / Total related substances / 4-Hydroxy alitretinoin impurity: with oxygen absorber and silica gel desiccant
# Procedure: (§1) Stability studies of alitretinoin were conducted by loading alitretinoin samples at various stability conditions, for example, at 25±2° C./60±5% relative humidity (RH) and 40±2° C./75±5% RH in the absence or presence of an oxygen absorber and a silica desiccant for 1 month, 2 months, 3 months, or 6 months. The stability studies were performed on a stability incubator (for accelerated stability studies, Hotpack was used and for real time stability studies, NuAire® was used). The degradation products were identified using an Agilent® 1100 series HPLC system.
# Alitretinoin was packed in a LDPE bag; the bag was twisted and tied with a plastic fastener under nitrogen. It was placed into a middle bag of polyester/LDPE along with an oxygen absorber. Vacuum was applied to the middle bag and then it was heat sealed. This sealed middle bag was packed into a polyester/aluminum/polyester/LDPE bag along with silica gel as a desiccant. Vacuum was applied to this bag and then it was heat sealed. The vacuum-sealed pack was loaded on stability at 40±2° C. and 75±5% RH.
# [2] = in the presence of oxygen; cited from earlier work
# [3] = Stability study of alitretinoin at 25±2° C./60±5% RH in vacuum-sealed pack in the presence of oxygen absorber (Stabilox) and silica gel desiccant; type: physicochemical; set-up: 4-Hydroxy alitretinoin impurity / 5,6-Epoxy alitretinoin impurity / Total related substances / 4-Oxo-alitretinoin impurity: unit not given here; details: for 4-Hydroxy alitretinoin impurity / 4-Oxo-alitretinoin impurity / 5,6-Epoxy alitretinoin impurity / Total related substances: with oxygen absorber and silica gel desiccant
# Procedure: as §1
# Alitretinoin was packed in a LDPE bag. The bag was twisted and tied with a plastic fastener under nitrogen. The LDPE bag was placed into a middle bag of polyester/LDPE along with an oxygen absorber. A vacuum was applied to the middle bag and then it was heat sealed. The sealed middle bag was packed into a polyester/aluminum/polyester/LDPE bag along with silica gel as a desiccant. Vacuum was applied to this bag and it was then heat sealed. The vacuum-sealed pack was loaded on stability at 25±2° C. and 60±5% RH.
# [4] = Stability study of alitretinoin in vacuum-sealed pack in the absence of oxygen absorber and silica gel desiccant (HPLC impurities); type: physicochemical; details: Initial; no oxygen absorber, no silica gel desiccant
# Procedure: as §1
# Alitretinoin was packed in a LDPE bag. The bag was twisted and tied with a plastic fastener under nitrogen. The LDPE bag was placed into a middle bag of polyester/LDPE and vacuum was applied to the middle bag and then it was heat sealed. The sealed middle bag was packed into a polyester/aluminum/polyester/LDPE bag. Vacuum was applied to this bag and then it was heat sealed. The vacuum-sealed pack was loaded on stability at stations 40±2° C. and 75±5% RH (accelerated) and 25±2° C. and 60±5% RH.
smiles,measurement,setting,value
"CC1=C(/C=C/C(C)=C\C=C\C(C)=C\C(=O)O)C(C)(C)CCC1 [Alitretinoin, (2E,4E,6Z,8E)-3,7-dimethyl-9-(2,6,6-trimethyl-1-cyclohexenyl)-2,4,6,8-nonatraenoic acid]",4-Oxo-alitretinoin impurity,[1]; 1M/40 ± 2° C./75 ± 5% RH,0.004 and 0.003
same,"5,6-Epoxy alitretinoin impurity",[1]; 1M/40 ± 2° C./75 ± 5% RH,0.008 and 0.006
same,Total related substances,[1]; 1M/40 ± 2° C./75 ± 5% RH,0.173 and 0.182 and 0.160
same,4-Hydroxy alitretinoin impurity,[1]; 2M/40 ± 2° C./75 ± 5% RH,0.003 and 0.002 and 0.004
same,4-Oxo-alitretinoin impurity,[1]; 2M/40 ± 2° C./75 ± 5% RH,0.003 and 0.002
same,"5,6-Epoxy alitretinoin impurity",[1]; 2M/40 ± 2° C./75 ± 5% RH,0.010 and 0.008 and 0.007
same,Total related substances,[1]; 2M/40 ± 2° C./75 ± 5% RH,0.191 and 0.192 and 0.180
same,4-Hydroxy alitretinoin impurity,[1]; 3M/40 ± 2° C./75 ± 5% RH,0.003 and 0.002
same,4-Oxo-alitretinoin impurity,[1]; 3M/40 ± 2° C./75 ± 5% RH,0.003 and 0.004
same,"5,6-Epoxy alitretinoin impurity",[1]; 3M/40 ± 2° C./75 ± 5% RH,0.008 and 0.010 and 0.006
same,Total related substances,[1]; 3M/40 ± 2° C./75 ± 5% RH,0.192 and 0.205 and 0.177
same,4-Hydroxy alitretinoin impurity,[1]; 6M/40 ± 2° C./75 ± 5% RH,0.002
same,4-Oxo-alitretinoin impurity,[1]; 6M/40 ± 2° C./75 ± 5% RH,0.003 and 0.004
same,"5,6-Epoxy alitretinoin impurity",[1]; 6M/40 ± 2° C./75 ± 5% RH,0.006 and 0.007
same,Total related substances,[1]; 6M/40 ± 2° C./75 ± 5% RH,0.175 and 0.188 and 0.167
same,Change in oxidative impurities on storage,"[1]; 40±2° C./75±5% RH (Table 3), in the presence of an oxygen absorber and a silica gel desiccant",no increase in oxidative impurities
same,4-Hydroxy alitretinoin impurity,[1]; Initial,0.002
same,4-Oxo-alitretinoin impurity,[1]; Initial,0.002 and 0.003
same,"5,6-Epoxy alitretinoin impurity",[1]; Initial,0.006 and 0.009
same,Total related substances,[1]; Initial,0.165 and 0.189 and 0.173
same,Decomposition,[2],decomposition was extensive
same,4-Hydroxy alitretinoin impurity,[3]; 3M/25 ± 2° C./60 ± 5% RH,0.003
same,4-Oxo-alitretinoin impurity,[3]; 3M/25 ± 2° C./60 ± 5% RH,0.003 and 0.002
same,"5,6-Epoxy alitretinoin impurity",[3]; 3M/25 ± 2° C./60 ± 5% RH,0.008 and 0.005
same,Total related substances,[3]; 3M/25 ± 2° C./60 ± 5% RH,0.198 and 0.195 and 0.179
same,4-Hydroxy alitretinoin impurity,[3]; 6M/25 ± 2° C./60 ± 5% RH,0.002 and 0.003
same,4-Oxo-alitretinoin impurity,[3]; 6M/25 ± 2° C./60 ± 5% RH,0.004 and 0.003
same,"5,6-Epoxy alitretinoin impurity",[3]; 6M/25 ± 2° C./60 ± 5% RH,0.006 and 0.008 and 0.005
same,Total related substances,[3]; 6M/25 ± 2° C./60 ± 5% RH,0.183 and 0.193 and 0.167
same,Change in oxidative impurities on storage,"[3]; 25±2° C./60±5% RH (Table 2), in the presence of an oxygen absorber and a silica gel desiccant",no increase in oxidative impurities
same,4-Hydroxy alitretinoin impurity,[3]; Initial,0.002
same,4-Oxo-alitretinoin impurity,[3]; Initial,0.002 and 0.003
same,"5,6-Epoxy alitretinoin impurity",[3]; Initial,0.006 and 0.009
same,Total related substances,[3]; Initial,0.165 and 0.189 and 0.173
same,Total related substances,[4],0.403 and 0.411 and 0.351
